Assay [1] concerns Bacillus cereus (ATCC 11778). The assay can be described thus: MIC, NCCLS broth microdilution assay. As to conditions: A = B. cereus ATCC 11778; for MIC: Bacillus cereus, ATCC11778, read-out: Minimum Inhibitory Concentration (MIC). Type of assay: cell-based. An outline of the steps: (§1)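 MIC determined by broth microdilution in microtiter plates per NCCLS documents M7-A4, M11-A4 (1997) and M27-T (1995). Antifungal testing against the yeast followed the method recommended in the Manual of Clinical Microbiology (1995).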
In general terms: In broth dilution the organism is exposed to a series of concentrations in liquid medium.

Assay [2] relates to Enterococcus faecium (ATCC 51559, a vancomycin resistant strain (VRE)). In words: MIC, NCCLS broth microdilution assay. Type of assay: cell-based. Conditions: D = E. faecium ATCC 51559. An outline of the steps:
as §1

Assay [3] has as its system Staphylococcus aureus (ATCC 27660, a methicillin resistant strain (MRSA)). The assay can be described thus: MIC, NCCLS broth microdilution assay. Type of assay: cell-based. Conditions: F = S. aureus ATCC 27660; for MIC: Staphylococcus aureus, read-out: Minimum Inhibitory Concentration (MIC). The gist of the method:
as §1

The subject of assay [4] is Staphylococcus epidermidis (ATCC 12228). The assay can be described thus: MIC, NCCLS broth microdilution assay. The format is cell-based. As to conditions: G = S. epidermidis ATCC 12228. An outline of the steps:
as §1

Assay [5] concerns Candida albicans (ATCC 38247). The assay can be described thus: Antifungal MIC assay. The format is cell-based. Conditions: B = C. albicans ATCC 38247; for MIC: Candida albicans, ATCC38247, read-out: Minimum Inhibitory Concentration (MIC). An outline of the steps:
as §1

For a further assay, the system named is E. faecalis ATCC 29212. The assay can be described thus: MIC, NCCLS broth microdilution assay. Conditions: C = E. faecalis ATCC 29212; for MIC: Enterococcus faecalis, ATCC29212, read-out: Minimum Inhibitory Concentration (MIC). Type of assay: cell-based, Enterococcus faecalis. The gist of the method:
(§2)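 Broth microdilution per NCCLS M7-A4 (1997) guidelines; MIC recorded as minimal inhibitory concentration.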

The test system of assay [6] is Staphylococcus aureus (ATCC 13709, a methicillin sensitive strain (MSSA)). In words: MIC, NCCLS broth microdilution assay. As to conditions: E = S. aureus ATCC 13709; for MIC: Staphylococcus aureus, read-out: Minimum Inhibitory Concentration (MIC). Type of assay: cell-based. The gist of the method:
as §1

The test system of assay [7] is Streptococcus pneumoniae (ATCC 51422, a penicillin resistant strain (PRSP)). In words: MIC, NCCLS broth microdilution assay. The format is cell-based. As to conditions: I = S. pneumoniae ATCC 51422. The gist of the method: as §1
The subject of the next assay is S. pneumoniae ATCC 49619. In words: MIC, NCCLS broth microdilution assay. Type of assay: cell-based, Streptococcus pneumoniae. Conditions: H = S. pneumoniae ATCC 49619; for MIC: Streptococcus pneumoniae, ATCC49619, read-out: Minimum Inhibitory Concentration (MIC). An outline of the steps: as §2

The record followed here is patent publication US7348427B2, “Antipathogenic benzamide compounds” (Genesoft Pharmaceuticals, Inc., priority 2001, dated 2008).

Structures are written as SMILES. Values after ≈ are worked out from the molar mass of the structure shown.

Turning to `Cn1cc(NC(=O)c2cc(NC(=O)c3cc(NC(=O)c4cc(NC(=O)c5ccc(F)cc5F)c[nH]4)cn3C)cn2C)cc1C(=O)NCCN1CCOCC1` [Compound A-2], the “Minimum Inhibitory Concentration (MIC)” value in assay [1] was “+++ (+++ = MIC ≦ 4)”; in assay [2], “+ (+ = 12 ≦ MIC ≦ 32)”; in assay [3], “+ (+ = 12 ≦ MIC ≦ 32)”; in assay [4], “+ (+ = 12 ≦ MIC ≦ 32)”; in [5], greater than 32 µg/mL; in the assay with E. faecalis ATCC 29212, “++ (++ = 4 < MIC < 12)”.
Turning to `Cn1cc(NC(=O)c2cc(NC(=O)c3cc(NC(=O)c4ccc(F)cc4F)c[nH]3)cn2C)cc1C(=O)NCCc1ccncc1` [Compound A-7], the “Minimum Inhibitory Concentration (MIC)” value in assay [1], in [2], in assay [6], in assay [3], in assay [4] and in assay [7] was “+++ (+++ = MIC ≦ 4)” throughout. Moreover, the “Minimum Inhibitory Concentration (MIC)” value in assay [5] is greater than 32 µg/mL; in the assay on E. faecalis ATCC 29212, “+++ (+++ = MIC ≦ 4)”; with S. pneumoniae ATCC 49619, “+++ (+++ = MIC ≦ 4)”.
In the case of `Cn1cc(NC(=O)c2cc(NC(=O)c3ccc(F)cc3)cn2C)cc1C(=O)NCCN1CCOCC1` [Compound B-36], the “Minimum Inhibitory Concentration (MIC)” value in assay [1] is greater than 32 µg/mL; in [2] it was “+ (+ = 12 ≦ MIC ≦ 32)”; in assay [6], greater than 32 µg/mL; in assay [3], greater than 32 µg/mL; in [7], greater than 32 µg/mL; in [5] it was greater than 32 µg/mL. Besides, the “Minimum Inhibitory Concentration (MIC)” value is greater than 32 µg/mL with E. faecalis ATCC 29212 and “+ (+ = 12 ≦ MIC ≦ 32)” in the assay with S. pneumoniae ATCC 49619.
For `Cc1cc(NC(=O)c2cc(NC(=O)c3cc(NC(=O)c4ccc(F)cc4F)c[nH]3)cn2CCN2CCOCC2)sn1` [Compound D-4], the “Minimum Inhibitory Concentration (MIC)” value in assay [1] was greater than 32 µg/mL; in assay [6], greater than 32 µg/mL; in assay [3], greater than 32 µg/mL; in [7], “+++ (+++ = MIC ≦ 4)”; in assay [5], greater than 32 µg/mL; in the assay on E. faecalis ATCC 29212, greater than 32 µg/mL. The “Minimum Inhibitory Concentration (MIC)” value with S. pneumoniae ATCC 49619 was greater than 32 µg/mL.
With `Cn1cc(NC(=O)c2cc(NC(=O)c3ccc(Cl)cc3F)c[nH]2)cc1C(=O)Nc1cc(C(=O)NCCN2CCCCC2)n(CCN2CCCCC2)c1` [Compound D-14], the “Minimum Inhibitory Concentration (MIC)” value is “+++ (+++ = MIC ≦ 4)” in assay [1]; “+++ (+++ = MIC ≦ 4)” in assay [6]; “+++ (+++ = MIC ≦ 4)” in assay [3]; greater than 32 µg/mL in assay [5]; “+++ (+++ = MIC ≦ 4)” in the assay on E. faecalis ATCC 29212; “+++ (+++ = MIC ≦ 4)” in the assay with S. pneumoniae ATCC 49619.
As for `Cc1cc(NC(=O)c2cc(NC(=O)c3cc(NC(=O)c4ccc(Cl)cc4F)cn3CCCN(C)C)c[nH]2)sn1` [Compound D-15], the “Minimum Inhibitory Concentration (MIC)” value (in assay [1]; in assay [6]; in [3]; in assay [5]; with E. faecalis ATCC 29212; in the assay with S. pneumoniae ATCC 49619) was “+++ (+++ = MIC ≦ 4)” in each case.
As for `Cc1cc(NC(=O)c2cc(NC(=O)c3cc(NC(=O)c4ccc(Cl)cc4F)c[nH]3)cn2CCC[N+](C)(C)C)sn1` [Compound D-23], the “Minimum Inhibitory Concentration (MIC)” value is “+++ (+++ = MIC ≦ 4)” in assay [1]; “+++ (+++ = MIC ≦ 4)” in [6]; “+++ (+++ = MIC ≦ 4)” in assay [3]; “++ (++ = 4 < MIC < 12)” in [5]; “+++ (+++ = MIC ≦ 4)” in the assay on E. faecalis ATCC 29212; “+++ (+++ = MIC ≦ 4)” with S. pneumoniae ATCC 49619.
Regarding `Cc1cc(NC(=O)c2cc(NC(=O)c3cc(NC(=O)c4ccc(Cl)cc4F)cn3CCCN3CCC(O)CC3)c[nH]2)sn1` [Compound D-24], the “Minimum Inhibitory Concentration (MIC)” value (in assay [1]; in assay [6]; in [3]; in assay [5]; in the assay with E. faecalis ATCC 29212; in the assay on S. pneumoniae ATCC 49619) was “+++ (+++ = MIC ≦ 4)” throughout.
Take `CN(C)CCCn1cc(NC(=O)c2cc(NC(=O)c3ccc(Cl)cc3F)cn2C)cc1C(=O)Nc1cc(C(=O)NCCN2CCOCC2)n(C)c1` [Compound D-25]: the “Minimum Inhibitory Concentration (MIC)” value was “+++ (+++ = MIC ≦ 4)” in assay [1]; “+++ (+++ = MIC ≦ 4)” in assay [6]; “+++ (+++ = MIC ≦ 4)” in assay [3]; “+ (+ = 12 ≦ MIC ≦ 32)” in assay [5]; “+++ (+++ = MIC ≦ 4)” in the assay with E. faecalis ATCC 29212; “+++ (+++ = MIC ≦ 4)” with S. pneumoniae ATCC 49619.
Regarding `CN(C)CCCn1cc(NC(=O)c2cc(NC(=O)c3ccc(Cl)cc3F)c[nH]2)cc1C(=O)Nc1cc(C(=O)NCCN2CCOCC2)n(C)c1` [Compound D-26], the “Minimum Inhibitory Concentration (MIC)” value in assay [1] is recorded as “+++ (+++ = MIC ≦ 4)”; in assay [6], “+++ (+++ = MIC ≦ 4)”; in assay [3], “+++ (+++ = MIC ≦ 4)”; in [5] it was “+ (+ = 12 ≦ MIC ≦ 32)”; in the assay on E. faecalis ATCC 29212, “+++ (+++ = MIC ≦ 4)”; in the assay with S. pneumoniae ATCC 49619, “+++ (+++ = MIC ≦ 4)”.
Regarding `Cn1cc(NC(=O)c2cc(NC(=O)c3cc(NC(=O)c4ccc(Cl)cc4)cn3C)cn2CCN2CCOCC2)cc1C(=O)NCCN1CCOCC1` [Compound D-27], the “Minimum Inhibitory Concentration (MIC)” value was “++ (++ = 4 < MIC < 12)” in [1]; “+ (+ = 12 ≦ MIC ≦ 32)” in assay [6]; “+ (+ = 12 ≦ MIC ≦ 32)” in assay [3]; greater than 32 µg/mL in assay [5]; “+++ (+++ = MIC ≦ 4)” with E. faecalis ATCC 29212; “+++ (+++ = MIC ≦ 4)” in the assay on S. pneumoniae ATCC 49619.
Regarding `Cc1cc(NC(=O)c2cc(NC(=O)c3cc(NC(=O)c4ccc(Cl)cc4)cn3C)cn2CCN2CCOCC2)sn1` [Compound D-28], the “Minimum Inhibitory Concentration (MIC)” value in assay [1] was “+ (+ = 12 ≦ MIC ≦ 32)”; in [6] it was “+ (+ = 12 ≦ MIC ≦ 32)”; in [3] it was “+ (+ = 12 ≦ MIC ≦ 32)”; in assay [5], greater than 32 µg/mL; in the assay on E. faecalis ATCC 29212, “+ (+ = 12 ≦ MIC ≦ 32)”; with S. pneumoniae ATCC 49619, “+++ (+++ = MIC ≦ 4)”.
`Cn1cc(NC(=O)c2cc(NC(=O)c3ccc(F)cc3F)no2)cc1C(=O)NCCN1CCOCC1` [Compound E-3]: the “Minimum Inhibitory Concentration (MIC)” value in [1] was “+ (+ = 12 ≦ MIC ≦ 32)”; in assay [6], greater than 32 µg/mL; in assay [3], “+ (+ = 12 ≦ MIC ≦ 32)”; in assay [5] it was greater than 32 µg/mL; in the assay on E. faecalis ATCC 29212 it was “+ (+ = 12 ≦ MIC ≦ 32)”; in the assay on S. pneumoniae ATCC 49619 it was “+ (+ = 12 ≦ MIC ≦ 32)”.
Regarding `Cn1cc(NC(=O)c2cc(NC(=O)c3cc(NC(=O)c4ccc(F)cc4F)no3)cn2C)cc1C(=O)NCCN1CCOCC1` [Compound E-8], the MIC in assay [1] is 12 to 32 µg/mL (≈ 19.2 to 51.2 µM); in assay [6] it was no more than 4 µg/mL; in [3], no more than 4 µg/mL; in assay [5], greater than 32 µg/mL; in the assay with E. faecalis ATCC 29212, no more than 4 µg/mL; in the assay with S. pneumoniae ATCC 49619, no more than 4 µg/mL.
Consider `Cn1cc(NC(=O)c2cc(NC(=O)c3cnc(NC(=O)c4ccc(F)cc4F)s3)cn2C)cc1C(=O)NCCN1CCOCC1` [Compound E-9], for which the MIC in [1] is greater than 32 µg/mL; in assay [6], greater than 32 µg/mL; in [3], greater than 32 µg/mL; in assay [5], greater than 32 µg/mL; in the assay on E. faecalis ATCC 29212, 12 to 32 µg/mL (≈ 18.7 to 49.9 µM); in the assay on S. pneumoniae ATCC 49619, 12 to 32 µg/mL (≈ 18.7 to 49.9 µM).
